Test [1] has as its target Human recombinant PDE10A2 (Homo sapiens (Human), UniProt Q9Y233). Nature of the test: In vitro hPDE10a: human recombinant PDE10A2 scintillation proximity assay, IC50. The conditions noted are these: human recombinant PDE10A2, SPA, 60 nM cAMP; read-out: hPDE10a2 IC50. Format: biochemical. In a few lines: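 Purified recombinant human PDE10A2 (Ni-sepharose) was assayed by SPA, counting [3H]-AMP product captured on yttrium silicate beads added in zinc sulphate stop solution. Inhibition was expressed as % of activity without compound, with a no-enzyme low control. Repeat data points were aggregated.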
A general note: In a scintillation proximity assay essentially only radioactivity close to the scintillant gives light.

Test [2] concerns the target Rat recombinant PDE10a (rPDE10a) (Rattus norvegicus (Rat), UniProt Q9QYJ6). The test is described as follows: In vitro assay PDE10a: rat recombinant PDE10a SPA with 3H-cAMP substrate, IC50. Format: biochemical. The conditions noted are these: 60 nM cAMP, read-out: rPDE10a2 IC50. In outline:
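Enzyme expressed in Sf9 cells via baculovirus and Ni-sepharose purified; reaction with 3H-cAMP ran 60 min at rt, stopped with PDE SPA beads. Compounds diluted in DMSO at 100-fold final concentration; blanks omitted enzyme.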

Where a name gives a salt, the structure may show the parent alone.

The IC50 is the midpoint of a concentration-inhibition curve.

Sequence of Human recombinant PDE10A2 (Q9Y233 267-1055): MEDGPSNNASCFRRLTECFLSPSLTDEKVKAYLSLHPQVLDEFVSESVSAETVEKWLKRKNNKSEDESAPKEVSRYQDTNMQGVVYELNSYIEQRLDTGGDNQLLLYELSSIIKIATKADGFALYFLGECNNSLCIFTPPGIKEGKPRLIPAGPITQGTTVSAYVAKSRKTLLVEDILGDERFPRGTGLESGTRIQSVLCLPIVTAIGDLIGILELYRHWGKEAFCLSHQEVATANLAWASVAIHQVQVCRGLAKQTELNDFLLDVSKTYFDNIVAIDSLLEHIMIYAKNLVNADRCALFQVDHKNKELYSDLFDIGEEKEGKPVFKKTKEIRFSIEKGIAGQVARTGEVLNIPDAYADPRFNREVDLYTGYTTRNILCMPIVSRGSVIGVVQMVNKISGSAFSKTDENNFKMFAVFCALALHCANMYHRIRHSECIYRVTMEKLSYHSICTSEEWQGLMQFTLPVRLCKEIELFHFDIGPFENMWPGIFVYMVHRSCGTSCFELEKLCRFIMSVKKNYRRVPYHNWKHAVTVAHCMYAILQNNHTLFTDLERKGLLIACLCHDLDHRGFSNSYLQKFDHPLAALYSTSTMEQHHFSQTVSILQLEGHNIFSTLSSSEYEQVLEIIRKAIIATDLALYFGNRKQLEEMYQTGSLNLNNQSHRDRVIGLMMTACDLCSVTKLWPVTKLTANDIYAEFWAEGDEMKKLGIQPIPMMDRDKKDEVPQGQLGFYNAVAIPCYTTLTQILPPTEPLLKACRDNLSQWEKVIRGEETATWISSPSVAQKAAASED
Sequence of Rat recombinant PDE10a (rPDE10a) (Q9QYJ6 whole entry): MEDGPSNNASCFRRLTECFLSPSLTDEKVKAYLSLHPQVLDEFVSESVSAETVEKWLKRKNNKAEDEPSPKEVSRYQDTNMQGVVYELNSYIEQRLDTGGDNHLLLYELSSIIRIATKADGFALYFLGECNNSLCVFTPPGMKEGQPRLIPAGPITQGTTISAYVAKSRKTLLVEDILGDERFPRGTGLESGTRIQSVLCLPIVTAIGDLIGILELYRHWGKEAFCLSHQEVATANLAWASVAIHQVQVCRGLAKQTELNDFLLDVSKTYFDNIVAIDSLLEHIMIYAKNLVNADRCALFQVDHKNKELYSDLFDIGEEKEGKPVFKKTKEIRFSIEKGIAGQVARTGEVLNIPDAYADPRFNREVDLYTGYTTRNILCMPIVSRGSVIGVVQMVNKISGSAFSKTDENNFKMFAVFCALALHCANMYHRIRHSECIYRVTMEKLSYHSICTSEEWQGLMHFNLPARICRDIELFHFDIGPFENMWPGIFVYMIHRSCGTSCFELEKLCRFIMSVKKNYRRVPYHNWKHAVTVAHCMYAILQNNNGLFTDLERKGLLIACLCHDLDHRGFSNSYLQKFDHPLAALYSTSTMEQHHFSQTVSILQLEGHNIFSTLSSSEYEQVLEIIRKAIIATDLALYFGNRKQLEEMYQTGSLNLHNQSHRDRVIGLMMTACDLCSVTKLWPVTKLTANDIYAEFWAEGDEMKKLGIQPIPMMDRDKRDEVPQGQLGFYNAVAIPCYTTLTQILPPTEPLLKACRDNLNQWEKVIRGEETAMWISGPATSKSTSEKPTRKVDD

`O=C(O)c1ccc(-c2c(/C=C/c3ccc4ccccc4n3)nc3c(N4CCOCC4)ccnn23)o1` [Cpd 58]: the IC50 was 2 nM in test [1] and 4 nM in test [2].
With `C(#Cc1cn2nccc(N3CCOCC3)c2n1)c1ccc2ccccc2n1` [Cpd 84, 2-[(8-Morpholin-4-ylimidazo[1,2-b]pyridazin-2-yl)ethynyl]quinoline], the IC50 in test [1] and in test [2] was under 1 nM throughout.
Regarding `O=C(O)c1ccc(Nc2c(/C=C/c3ccc4ccccc4n3)nc3c(N4CCOCC4)ccnn23)cc1` [Cpd 138, (E)-4-((8-Morpholino-2-(2-(quinolin-2-yl)vinyl)imidazo[1,2-b]pyridazin-3-yl)amino)benzoic acid], the IC50 in test [1] amounted to 5 nM; in test [2], 2 nM.
For the compound `COc1cc(-c2c(CCc3ccc4ccccc4n3)nc3c(N4CCOCC4)ccnn23)ccc1C(=O)O` [compound 69, 2-Methoxy-4-(8-morpholino-2-(2-(quinolin-2-yl)ethyl)imidazo[1,2-b]pyridazin-3-yl)benzoic acid], the results for the IC50 in test [1] and in test [2] were 6 nM and 4 nM, respectively.
`O=C(O)c1ccc(-c2c(C#Cc3cccc(C(F)(F)F)n3)nc3c(N4CCOCC4)ccnn23)cc1` [Cpd 111, 4-(8-Morpholino-2-((6-(trifluoromethyl)pyridin-2-yl)ethynyl)imidazo[1,2-b]pyridazin-3-yl)benzoic acid]: the half-inhibitory concentration (IC50) in test [1] was about 18 nM; in test [2], 17 nM.
`Clc1cc(N2CCOCC2)c2nc([C@H]3C[C@H](c4ccc5ccccc5n4)C3)cn2n1` [Cpd 130, 2-[trans-3-(6-Chloro-8-morpholin-4-ylimidazo[1,2-b]pyridazin-2-yl)cyclobutyl]quinoline]: the 50% inhibitory concentration (IC50) in test [1] came out at 19 nM; in test [2], 30 nM.
On to `O=C(O)CNC(=O)c1ccc(-c2c(CCc3ccc4ccccc4n3)nc3c(N4CCOCC4)ccnn23)cc1` [Cpd 68, 2-(4-(8-Morpholino-2-(2-(quinolin-2-yl)ethyl)imidazo[1,2-b]pyridazin-3-yl)benzamido)acetic acid trifluoroacetic acid salt], for which the figures for the IC50 in test [1] and in test [2] were 5 nM and 6 nM, respectively.
In the case of `COc1cc(/C=C/c2nc3c(N4CCOCC4)ccnn3c2-c2ccc(C(=O)O)cc2)nc2ccccc12` [Cpd 135, 4-{2-[(E)-2-(4-Methoxyquinolin-2-yl)ethenyl]-8-morpholin-4-ylimidazo[1,2-b]pyridazin-3-yl}benzoic acid], the IC50 in test [1] is 6 nM; in test [2], 10 nM.
As for `O=C(O)c1ccc(-c2c(C#Cc3ccccn3)nc3c(N4CCOCC4)ccnn23)cc1` [Cpd 86, 4-(8-Morpholino-2-(pyridin-2-ylethynyl)imidazo[1,2-b]pyridazin-3-yl)benzoic acid], the IC50 in test [1] and in test [2] was 2 nM throughout.
`O=C(O)c1ccc(-c2c(C#Cc3ccc(C(F)(F)F)cn3)nc3c(N4CCOCC4)ccnn23)cc1` [Cpd 97, 4-(8-Morpholino-2-((5-(trifluoromethyl)pyridin-2-yl)ethynyl)imidazo[1,2-b]pyridazin-3-yl)benzoic acid]: the IC50 in test [1] was found to be 22 nM; in test [2], 20 nM.
As to `O=C(O)c1ccc(-c2c(CCc3ccc4c(n3)CCCC4)nc3c(N4CCOCC4)ccnn23)cc1` [Cpd 79, 4-(8-Morpholino-2-(2-(5,6,7,8-tetrahydroquinolin-2-yl)ethyl)imidazo[1,2-b]pyridazin-3-yl)benzoic acid trifluoroacetic acid salt], the values for the IC50 in test [1] and in test [2] were 3 nM and 8 nM, respectively.
In the case of `c1ccc2nc(CCc3nc4c(N5CCOCC5)ccnn4c3-c3ccc(N4CCNCC4)nc3)ccc2c1` [Cpd 13, 4-(3-(6-(piperazin-1-yl)pyridin-3-yl)-2-(2-(quinolin-2-yl)ethyl)imidazo[1,2-b]pyridazin-8-yl)morpholine trifluoroacetic acid salt], the figures for the concentration for half-maximal inhibition (IC50) in test [1] and in test [2] were 20 nM and 14 nM, respectively.
In the same order, the values of `c1ccc2nc(CNc3nc4c(N5CCOCC5)ccnn4c3-c3ccc(N4CCNCC4)nc3)ccc2c1` [Cpd 11, 8-Morpholino-3-(6-(piperazin-1-yl)pyridin-3-yl)-N-(quinolin-2-ylmethyl)imidazo[1,2-b]pyridazin-2-amine trifluoroacetic acid salt] are 55 nM and 25 nM.
Turning to `CCN(CC)c1ccc(-c2c(COc3ccc4ccccc4n3)nc3c(N4CCOCC4)ccnn23)cn1` [Cpd 7, N,N-diethyl-5-(8-morpholino-2-((quinolin-2-yloxy)methyl)imidazo[1,2-b]pyridazin-3-yl)pyridin-2-amine methane sulfonic acid], the 50% inhibitory concentration (IC50) in test [1] was found to be 692 nM; in test [2], 447 nM.
In the case of `COc1cccc(-c2c(/C=C/c3ccc4c(C(=O)NS(C)(=O)=O)cccc4n3)nc3c(N4CCOCC4)ccnn23)c1` [Cpd 150, (E)-2-(2-(3-(3-Methoxyphenyl)-8-morpholinoimidazo[1,2-b]pyridazin-2-yl)vinyl)-N-(methylsulfonyl)quinoline-5-carboxamide], the IC50 in test [1] and in test [2] was 6 nM in each case.
Take `C(=C\c1nc2c(N3CCOCC3)ccnn2c1-c1cccc(-c2nnn[nH]2)c1)/c1ccc2ccccc2n1` [Cpd 105, (E)-4-(3-(3-(1H-Tetrazol-5-yl)phenyl)-2-(2-(quinolin-2-yl)vinyl)imidazo[1,2-b]pyridazin-8-yl)morpholine trifluoroacetic acid salt]: the half-inhibitory concentration (IC50) in test [1] came to 4 nM; in test [2] it was 5 nM.
As to `COc1cccc(/C=C/c2nc3c(N4CCOCC4)ccnn3c2-c2ccc(C(=O)O)cc2)n1` [Cpd 133, 4-{2-[(E)-2-(6-Methoxypyridin-2-yl)ethenyl]-8-morpholin-4-ylimidazo[1,2-b]pyridazin-3-yl}benzoic acid], the IC50 in test [1] amounted to 62 nM; in test [2] it was 70 nM.
In the case of `CS(=O)(=O)NC(=O)CCc1ccc(-c2c(/C=C/c3ccc4ccccc4n3)nc3c(N4CCOCC4)ccnn23)cc1` [Cpd 132, (E)-N-(Methylsulfonyl)-3-(4-(8-morpholino-2-(2-(quinolin-2-yl)vinyl)imidazo[1,2-b]pyridazin-3-yl)phenyl)propanamide trifluoroacetic acid salt], the IC50 worked out at 11 nM in test [1] and 15 nM in test [2].
`Oc1c(F)cc(-c2c(/C=C/c3ccc4ccccc4n3)nc3c(N4CCOCC4)ccnn23)cc1F` [compound 80, (E)-2,6-Difluoro-4-(8-morpholino-2-(2-(quinolin-2-yl)vinyl)imidazo[1,2-b]pyridazin-3-yl)phenol]: the results for the IC50 in test [1] and in test [2] were under 1 nM and 2 nM, respectively.
The matching figures for `O=c1[nH]c(-c2ccc(-c3c(COc4ccc5ccccc5n4)nc4c(N5CCOCC5)ccnn34)cn2)no1` [Cpd 35, 3-(5-(8-Morpholino-2-((quinolin-2-yloxy)methyl)imidazo[1,2-b]pyridazin-3-yl)pyridin-2-yl)-1,2,4-oxadiazol-5(4H)-one]: 5 nM and 7 nM.
`CN1CC=C(c2ccc(-c3c(COc4ccc5ccccc5n4)nc4c(N5CCOCC5)ccnn34)cn2)CC1` [Cpd 10, 4-(3-(1′-methyl-1′,2′,3′,6′-tetrahydro-[2,4′-bipyridin]-5-yl)-2-((quinolin-2-yloxy)methyl)imidazo[1,2-b]pyridazin-8-yl)morpholine]: the 50% inhibitory concentration (IC50) in test [1] worked out at 43 nM; in test [2], 17 nM.
As to `O=C(O)c1cccc(-c2c(C#Cc3ccc4ccccc4n3)nc3c(N4CCOCC4)ccnn23)c1` [Cpd 88, 3-(8-Morpholino-2-(quinolin-2-ylethynyl)imidazo[1,2-b]pyridazin-3-yl)benzoic acid trifluoroacetic acid salt], the IC50 in test [1] and in test [2] was under 1 nM each time.
For the compound `O=C(O)CCC(=O)N1CCN(c2c(/C=C/c3ccc4ccccc4n3)nc3c(N4CCOCC4)ccnn23)CC1` [compound 155, (E)-4-(4-(8-Morpholino-2-(2-(quinolin-2-yl)vinyl)imidazo[1,2-b]pyridazin-3-yl)piperazin-1-yl)-4-oxobutanoic acid], the concentration for half-maximal inhibition (IC50) in test [1] is 5 nM; in test [2] it was 3 nM.
The matching figures for `O=C(O)c1ccc(Nc2c(/C=C/c3ccc4ccccc4n3)nc3c(N4CCOCC4)ccnn23)c(F)c1` [Cpd 139, (E)-3-Fluoro-4-((8-morpholino-2-(2-(quinolin-2-yl)vinyl)imidazo[1,2-b]pyridazin-3-yl)amino)benzoic acid]: 1 nM and 2 nM.
In the case of `O=C(O)c1ccc(-c2c(/C=C/c3ccc4ccccc4n3)nc3c(N4CCOCC4)ccnn23)s1` [Cpd 57, (E)-5-(8-Morpholino-2-(2-(quinolin-2-yl)vinyl)imidazo[1,2-b]pyridazin-3-yl)thiophene-2-carboxylic acid], the concentration for half-maximal inhibition (IC50) in test [1] and in test [2] was 1 nM throughout.
For the compound `O=C(O)c1ccc2ccc(/C=C/c3cn4nc(Cl)cc(N5CCOCC5)c4n3)nc2c1` [Cpd 94, 2-[(E)-2-(6-Chloro-8-morpholin-4-ylimidazo[1,2-b]pyridazin-2-yl)ethenyl]quinoline-7-carboxylic acid], the IC50 in test [1] worked out at 53 nM; in test [2], 82 nM.
On to `O=C(O)c1ccc(-c2c(/C=C/c3ccccn3)nc3c(N4CCOCC4)ccnn23)cc1` [Cpd 89, (E)-4-(8-Morpholino-2-(2-(pyridin-2-yl)vinyl)imidazo[1,2-b]pyridazin-3-yl)benzoic acid], for which the values for the 50% inhibitory concentration (IC50) in test [1] and in test [2] were 89 nM and 62 nM, respectively.
In the same order, the values of `O=C(O)c1cc(/C=C/c2cn3nc(Cl)cc(N4CCOCC4)c3n2)nc2ccccc12` [Cpd 126, 2-[(E)-2-(6-Chloro-8-morpholin-4-ylimidazo[1,2-b]pyridazin-2-yl)ethenyl]quinoline-4-carboxylic acid] are 2 nM and 1 nM.

These data come from patent US9193736B2, “PDE 10a inhibitors for the treatment of type II diabetes” (Janssen Pharmaceutica, NV, priority 2013, dated 2015).
